{"source": "patent US20120128654A1", "about": "“Allantoin Administration for the Treatment of Neurodegenerative Disease and Neurotrauma” (UNIVERSITY OF CINCINNATI, priority 2009, published 2012)", "key": {"[1]": {"tested_on": "NOX-1 expression in the SN", "assay": "NOX-1 immunohistochemistry, counts of NOX-1ir cells in the SN after 6-OHDA", "format": "in vivo, Sprague Dawley rats", "description": "Rats were anesthetized prior to surgery with Equi-Thesin (0.3 ml/100 g body weight i.p.; chloral hydrate 42.5 mg/ml+sodium pentobarbital 9.72 mg/ml), their heads shaved, and then they were placed in a stereotaxic frame. Their skin was swabbed with Betadyne followed by 70% ETOH. The scalp was then opened to expose the skull. Two 1 mm holes were drilled into the skull and rats were injected in two sites in the striatum with 6-OHDA (MP Biomedicals, Solon, Ohio; 5 μg/μl 6-OHDA in 0.2% ascorbic acid, 0.9% saline solution). The coordinates for these injections were AP −1.6 mm, ML +2.4 mm, DV −4.2 mm and AP −0.2 mm, +ML 2.6 mm, DV −7.0 mm. The needle was zeroed at the skull directly above the injection site in order to target the DV coordinate. For each injection, the needle was lowered slowly to the injection site and 1 minute elapsed before injection commenced, 6-OHDA was injected at 0.5 μl/minute and at the end of the injection the needle was held in place for an additional 2 minutes prior to retraction. The wound area was cleaned with Betadine solution and the scalp was closed with surgical wound clips. This lesion paradigm results in a progressive loss of TH phenotype and frank DA cell death.\nBrains were frozen on dry ice and sectioned at a 40 μm thickness using a sliding microtome. Every sixth section through the midbrain was for incubated 30 minutes in sodium citrate 10 mM at 80 degrees Celsius. Following blocking in 10% normal goat serum, tissue was incubated in primary antisera directed against NOX-1 (Santa Cruz Biotechnology, Santa Cruz, Calif., 1:1000). Following primary incubation, sections were incubated in biotinylated secondary antisera against rabbit IgG (Vector Laboratory, Burlingame, Calif., 1:200) followed by the Vector ABC detection kit employing horseradish peroxidase. Antibody labeling was visualized by exposure to 0.5 mg/ml 3,3′ diaminobenzidine (DAB) and 0.03% H2O2 in Tris buffer. Sections were mounted on subbed slides, dehydrated to xylene and coverslipped with Cytoseal.\nAbsolute counts of NOX-1ir cells was performed using a BX52 Olympus microscope interfaced with Microbrightfield stereological software and a Microfire CCD camera. Counts of NOX1-ir neurons were made at 20× and the sum of these values was adjusted according to the method of Abercrombie (Abercrombie, M., Estimation of nuclear populations from microtome sections, Anat. Rec. 94:239-247 (1946)). To assure that no cells were excluded or counted more than once, each cell was marked utilizing StereoInvestigator 7.0 (Microbrightfield Williston, Vt.). The total number of markers recorded by the software was utilized to estimate the total number of NOX-1ir cells (Fawcettt, et al., Dopaminergic neuronal survival and the effects of bFGF in explant, three dimensional and monolayer cultures of embryonic rat ventral mesencephalon, Exp. Brain Res. 106:275-82 (1995)).\nIncreased NOX-1 expression is directly linked to increased oxidative stress (Vignais, P., The superoxide-generating NADPF oxidase: structural aspects and activation mechanism, Cell Mol. Life Sci. 59:1428-59 (2002)). To determine the effect of ALL on NOX-1 expression in the SN and Red Nucleus, animals received either ALL pellets (n=6) or sham implantation (n=6). Pellet implantation surgery took place 3 days prior to intrastriatal 6-OHDA infusion. Twenty-four hours post-lesion, animals were sacrificed via intracardial saline perfusion and the SN was processed for NOX-1 immunohistochemistry."}, "[2]": {"assay": "Whole brain allantoin levels after subcutaneous allantoin pellets (blood brain barrier crossing)", "format": "in vivo, Sprague Dawley rats", "settings": "non-lesioned rats, s.c. allantoin pellets, three days following pellet implantation, relative to control rats", "description": "Continuous s.c. delivery of INO, KO and ALL was achieved by implanting matrix-driven pellets into the s.c. space. Animals were anesthetized with isofluorane and prepared for surgery using sterile procedures. A small incision was made posterior to the scapula and the pellet was placed in the subscapular space contralateral to the incision. This placement technique prevents migration of the pellet towards the incision, thereby reducing the incidents of rejection. Finally, the incision was closed using aseptic procedures. To determine the roles of UA and allantoin in inosine-mediated neuroprotection, animals were treated with the urate oxidase inhibitor KO. This approach has been widely used to prevent the enzymatic metabolism of UA to allantoin in other rodent models of disease.\nTo measure brain allantoin levels, whole brains were freeze dried, ground into a fine powder and homogenized in 0.8 ml of 2.5% trichloroacetic acid (TCA) per 100 mg. The homogenate was centrifuged at 18,000 rpm for 15 min. […] The remaining supernatant was then analyzed for allantoin.\nTo determine the ability of allantoin to cross the intact blood brain barrier (BBB), non-lesioned rats received either allantoin pellets or sham implantation. […] Whole brain levels of allantoin were determined enzymatically."}, "[3]": {"settings": "s.c. ALL pellets 3 days prior to 6-OHDA, twenty-four hours post-lesion, vs untreated controls"}}, "note": "“Also recorded” adds a separate entry of the source."}
{"smiles": "NC(=O)NC1NC(=O)NC1=O", "note": "(stereo not drawn) [allantoin]", "values": [{"measurement": "number of NOX-1ir cells in the SN", "setting": "[1]; s.c. ALL pellets 3 days prior to 6-OHDA, overall treatment effect", "result": "decreased"}, {"measurement": "number of NOX-1ir cells in the 6-OHDA lesioned SN", "setting": "[1]; [3]", "result": "significant decrease"}, {"measurement": "number of NOX-1ir cells in the intact SN", "setting": "[1]; [3]", "result": "significant decrease"}, {"measurement": "number of NOX-1ir cells in the 6-OHDA lesioned SN", "setting": "[1]; s.c. ALL pellets 3 days prior to 6-OHDA, twenty-four hours post-lesion, vs untreated controls, listed as ALL", "result": "significantly reduced"}, {"measurement": "NOX-1 expression induced by 6-OHDA", "setting": "[1]; s.c. allantoin pellets, SN", "result": "significantly reduced"}, {"measurement": "whole brain allantoin levels", "setting": "[2]", "result": "approximately double; also recorded: significant increase"}]}
